{"source": "paper PMC5546605", "about": "(PLoS ONE, 2017)", "key": {"[1]": {"target": "T1, cellular prion protein (PrP^C) (Mus musculus, UniProt P04925)", "T1 construct": "gene Prnp", "T1 sequence (P04925 23-230 limits assumed)": "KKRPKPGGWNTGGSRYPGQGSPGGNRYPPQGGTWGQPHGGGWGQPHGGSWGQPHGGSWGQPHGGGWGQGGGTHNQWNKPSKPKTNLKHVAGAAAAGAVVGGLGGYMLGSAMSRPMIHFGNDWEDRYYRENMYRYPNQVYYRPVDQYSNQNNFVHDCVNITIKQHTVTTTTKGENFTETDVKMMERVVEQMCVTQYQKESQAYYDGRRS", "assay": "biochemical", "type": "binding"}, "[2]": {"target": "T2, cellular prion protein (PrP^C) (Homo sapiens, UniProt P04156)", "T2 construct": "gene PRNP", "assay": "biochemical", "type": "binding"}}, "data": [{"smiles": "CN(C)CCCN1c2ccccc2Sc2ccc(Cl)cc21", "note": "[CPZ, chlorpromazine]", "values": [{"measurement": "Kd", "setting": "[1]", "value": "> 100", "unit": "µM"}, {"measurement": "Kd", "setting": "[2]", "value": 421, "unit": "µM"}]}]}
